Assay results published in US4629786A, “C-20- and C-23 modified macrolide derivatives” (Eli Lilly and Company, priority 1984, dated 1986).
Values after ≈ are worked out from the molar mass of the structure shown. Where two headings read alike, the source gives them in different places.

Tests used:
[1] = system: Klebsiella pneumoniae X26; assay: MIC, standard agar-dilution assay, Klebsiella pneumoniae X26; type: cell-based
Experimental: (§1) Certain of the derivatives are active against some gram-negative bacteria, such as Pasteurella species. The MIC's in Table II were determined by standard agar-dilution assays.

[2] = system: Staphylococcus aureus V41; assay: MIC, standard agar-dilution assay, Staphylococcus aureus V41; type: cell-based
Experimental: as §1

[3] = system: Streptococcus pyogenes C203; assay: MIC, standard agar-dilution assay, Streptococcus pyogenes C203; type: cell-based
Experimental: as §1

Escherichia coli EC14 = assay: MIC, standard agar-dilution assay, Escherichia coli EC14; type: cell-based
Experimental: as §1

[4] = system: Streptococcus pyogenes C203; assay: protection of mice experimentally infected with S. pyogenes C203; type: in vivo; details: mg/kg × 2, doses given 1 and 4 hours postinfection
Experimental: Some of the derivatives of this invention have shown in vivo antimicrobial activity against experimentally-induced infections in laboratory animals. When two doses of test compound were administered to mice experimentally infected with S. pyogenes C203, the activity observed was measured as an ED50 value [effective dose in mg/kg to protect 50% of the test animals: see Warren Wick, et al., J. Bacteriol. 81, 233-235 (1961)].
^a mg/kg × 2; doses given 1 and 4 hours postinfection

[5] = system: Staphylococcus aureus S13E; assay: MIC, standard agar-dilution assay, Staphylococcus aureus S13E; type: cell-based
Experimental: as §1

[6] = system: Haemophilus influenzae C.L.; assay: MIC, standard agar-dilution assay, Haemophilus influenzae C.L.; type: cell-based
Experimental: as §1

[7] = system: Haemophilus influenzae 76; assay: MIC, standard agar-dilution assay, Haemophilus influenzae 76; type: cell-based
Experimental: as §1

[8] = system: Staphylococcus aureus X400; assay: MIC, standard agar-dilution assay, Staphylococcus aureus X400; type: cell-based
Experimental: as §1

[9] = system: Staphylococcus epidermidis EPI1; assay: MIC, standard agar-dilution assay, Staphylococcus epidermidis EPI1; type: cell-based
Experimental: as §1

[10] = system: Streptococcus pneumoniae Group D X9960; assay: MIC, standard agar-dilution assay, Streptococcus pneumoniae Group D X9960; type: cell-based
Experimental: as §1

Escherichia coli TEM = assay: MIC, standard agar-dilution assay, Escherichia coli TEM; type: cell-based
Experimental: as §1

[11] = system: Streptococcus pneumoniae Park I; assay: MIC, standard agar-dilution assay, Streptococcus pneumoniae Park I; type: cell-based
Experimental: as §1

[12] = system: Staphylococcus aureus X1.1; assay: MIC, standard agar-dilution assay, Staphylococcus aureus X1.1; type: cell-based
Experimental: as §1

[13] = system: Streptococcus pneumoniae Group D X66; assay: MIC, standard agar-dilution assay, Streptococcus pneumoniae Group D X66; type: cell-based
Experimental: as §1

[14] = system: Klebsiella pneumoniae KAE; assay: MIC, standard agar-dilution assay, Klebsiella pneumoniae KAE; type: cell-based
Experimental: as §1

[15] = system: Staphylococcus epidermidis EPI2; assay: MIC, standard agar-dilution assay, Staphylococcus epidermidis EPI2; type: cell-based
Experimental: as §1

[16] = Streptococcus pneumoniae Group D X9960, read-out: MIC
[17] = Streptococcus pneumoniae Park I, read-out: MIC
[18] = Staphylococcus aureus X400, Methicillin-resistant strain, read-out: MIC
[19] = Klebsiella pneumoniae KAE, read-out: MIC
[20] = Haemophilus influenzae C.L., Ampicillin-sensitive strain, read-out: MIC
[21] = Haemophilus influenzae 76, Ampicillin-resistant strain, read-out: MIC
[22] = Escherichia coli TEM, read-out: MIC
[23] = Staphylococcus aureus V41, Penicillin-resistant strain, read-out: MIC

SMILES | MIC ([2]; Staphylococcus aureus, V41) [µg/mL] | MIC [3] [µg/mL] | MIC (Escherichia coli EC14; read-out: MIC) [µg/mL] | ED50 ([4]; C203, Oral) [mg/kg] | ED50 ([4]; C203, sc, Subcutaneous) [mg/kg] | MIC [5] [µg/mL] | MIC ([9]; read-out: MIC) [µg/mL] | MIC [10, 16] [µg/mL] | MIC (Escherichia coli TEM; Escherichia coli) [µg/mL] | MIC [11, 17] [µg/mL] | MIC [12] [µg/mL] | MIC ([13]; Streptococcus pneumoniae) [µg/mL] | MIC [15] [µg/mL] | MIC ([1]; read-out: MIC) [µg/mL] | MIC (Escherichia coli EC14) [µg/mL] | MIC [8, 18] [µg/mL] | MIC [14, 19] [µg/mL] | MIC ([3]; read-out: MIC) [µg/mL] | MIC [6, 20] [µg/mL] | MIC [7, 21] [µg/mL] | also measured
CCC1OC(=O)CC(O)C(C)C(OC2OC(C)C(O)C(N(C)C)C2O)C(CCN2CCC(c3ccccc3)CC2)CC(C)C(=O)C=CC(C)=CC1CO (stereo not shown) [Compound 4, 20-DH-DO-20-(4-Phenylpiperidin-1-yl)-OMT] | 2 (≈ 2.69 µM) | 2 (≈ 2.69 µM) | 32 (≈ 43.1 µM) | > 100 | > 10 | 2 (≈ 2.69 µM) | 1 (≈ 1.35 µM) | 4 (≈ 5.38 µM) | 8 (≈ 10.8 µM) | 0.25 (≈ 0.336 µM) | 2 (≈ 2.69 µM) | 2 (≈ 2.69 µM) | 0.5 (≈ 0.673 µM) |  |  |  |  |  |  |  | MIC [1]: 2 µg/mL (≈ 2.69 µM); MIC ([6]; Haemophilus influenzae): 8 µg/mL (≈ 10.8 µM); MIC ([7]; Haemophilus influenzae, 76): 8 µg/mL (≈ 10.8 µM); MIC ([8]; Staphylococcus aureus, X400): 2 µg/mL (≈ 2.69 µM); MIC ([14]; Klebsiella pneumoniae): 64 µg/mL (≈ 86.1 µM)
CCC1OC(=O)CC(O)C(C)C(OC2OC(C)C(O)C(N(C)C)C2O)C(CCN2CCCCCC2)CC(C)C(=O)C=CC(C)=CC1CO (stereo not shown) [Compound 5] | 4 (≈ 5.87 µM) | 0.5 (≈ 0.734 µM) |  | > 100 | 7.8 | 4 (≈ 5.87 µM) | 2 (≈ 2.94 µM) |  | 16 (≈ 23.5 µM) |  | 4 (≈ 5.87 µM) | 16 (≈ 23.5 µM) | 2 (≈ 2.94 µM) | 4 (≈ 5.87 µM) | 128 (≈ 188 µM) | 8 (≈ 11.7 µM) | 128 (≈ 188 µM) |  |  |  | MIC ([6]; Haemophilus influenzae): 16 µg/mL (≈ 23.5 µM); MIC ([7]; Haemophilus influenzae, 76): 16 µg/mL (≈ 23.5 µM); MIC ([10]; Streptococcus pneumoniae): 16 µg/mL (≈ 23.5 µM)
CCC1OC(=O)CC(O)C(C)C(OC2OC(C)C(O)C(N(C)C)C2O)C(CCN2CC3CCC(CC3)C2)CC(C)C(=O)C=CC(C)=CC1CO (stereo not shown) [Compound 13, 20-DH-DO-20-[3-Azabicyclo(3.2.2)-nonan-3-yl]-OMT] | 1 (≈ 1.41 µM) |  | 32 (≈ 45.3 µM) | 87 | 5.9 | 1 (≈ 1.41 µM) |  | 8 (≈ 11.3 µM) |  |  | 1 (≈ 1.41 µM) | 4 (≈ 5.66 µM) | 0.25 (≈ 0.354 µM) | 2 (≈ 2.83 µM) |  | 1 (≈ 1.41 µM) |  | 2 (≈ 2.83 µM) | 4 (≈ 5.66 µM) | 2 (≈ 2.83 µM) | MIC [9]: 1 µg/mL (≈ 1.41 µM); MIC (Escherichia coli TEM; [22]): 8 µg/mL (≈ 11.3 µM); MIC ([11]; Streptococcus pneumoniae): 0.25 µg/mL (≈ 0.354 µM); MIC ([14]; Klebsiella pneumoniae): 64 µg/mL (≈ 90.5 µM); pKa (physchem; Titration pKa value (first)): 7.7; pKa (physchem; Titration pKa value (second)): 9.3
CCC1OC(=O)CC(O)C(C)C(OC2OC(C)C(O)C(N(C)C)C2O)C(CCN2CCOCC2)CC(C)C(=O)C=CC(C)=CC1CO (stereo not shown) [Compound 14, 20-DH-DO-20-Morpholino-OMT] |  |  |  | > 100 | > 10 | 4 (≈ 5.98 µM) | 2 (≈ 2.99 µM) | 4 (≈ 5.98 µM) | 64 (≈ 95.7 µM) | 0.5 (≈ 0.748 µM) |  |  | 1 (≈ 1.5 µM) |  | 128 (≈ 191 µM) | 8 (≈ 12 µM) |  | 1 (≈ 1.5 µM) | 16 (≈ 23.9 µM) | 4 (≈ 5.98 µM) | MIC [1]: 4 µg/mL (≈ 5.98 µM); MIC [2, 23]: 4 µg/mL (≈ 5.98 µM); pKa (Titration pKa; Titration pKa value (first)): 6.5; pKa (Titration pKa; Titration pKa value (second)): 8.4; MIC ([12]; read-out: MIC): 4 µg/mL (≈ 5.98 µM); MIC ([14]; Klebsiella pneumoniae KAE, symbol for not active at 128 mcg/ml, read-out: MIC): > 128 µg/mL
CCC1OC(=O)CC(O)C(C)C(OC2OC(C)C(O)C(N(C)C)C2O)C(CCN2CCCCCCC2)CC(C)C(=O)C=CC(C)=CC1CN1CCCCCCC1 (stereo not shown) [Compound 15, 20-DH-DO-23-Deoxy-20,23-di(octahydroazocin-1-yl)-OMT] | 0.5 (≈ 0.633 µM) |  | 4 (≈ 5.06 µM) | > 50 | > 10 | 0.5 (≈ 0.633 µM) | 0.5 (≈ 0.633 µM) | 1 (≈ 1.27 µM) |  | 0.125 (≈ 0.158 µM) |  | 0.5 (≈ 0.633 µM) | 0.25 (≈ 0.316 µM) | 2 (≈ 2.53 µM) |  |  | 8 (≈ 10.1 µM) | 0.125 (≈ 0.158 µM) | 0.5 (≈ 0.633 µM) | 1 (≈ 1.27 µM) | pKa (Titration pKa; Titration pKa value (first)): 6.9; pKa (Titration pKa; Titration pKa value (second)): 8.05; pKa (Titration pKa; Titration pKa value (third), third printed value): 8.9; MIC ([8]; Staphylococcus aureus, X400): 0.5 µg/mL (≈ 0.633 µM); MIC (Escherichia coli TEM; [22]): 2 µg/mL (≈ 2.53 µM); MIC ([12]; read-out: MIC): 0.5 µg/mL (≈ 0.633 µM)
CCC1OC(=O)CC(O)C(C)C(OC2OC(C)C(O)C(N(C)C)C2O)C(CCN2CCCCCC2)CC(C)C(=O)C=CC(C)=CC1C (stereo not shown) [Compound 23] |  | 0.5 (≈ 0.752 µM) |  | > 100 | > 10 | 4 (≈ 6.02 µM) | 2 (≈ 3.01 µM) | 16 (≈ 24.1 µM) | 8 (≈ 12 µM) |  |  |  | 1 (≈ 1.5 µM) | 2 (≈ 3.01 µM) | 128 (≈ 193 µM) | 8 (≈ 12 µM) | 128 (≈ 193 µM) |  | 16 (≈ 24.1 µM) | 16 (≈ 24.1 µM) | MIC [2, 23]: 4 µg/mL (≈ 6.02 µM); MIC ([12]; read-out: MIC): 4 µg/mL (≈ 6.02 µM); MIC ([13]; Streptococcus pneumoniae Group D X66, read-out: MIC): 8 µg/mL (≈ 12 µM)
